Values of other authors as cited in patent publication US4370313A, “Nitrofurantoin dosage form” (Eaton Laboratories, Inc., priority 1981, dated 1983).

Question: For `O=C1CN(/N=C/c2ccc([N+](=O)[O-])o2)C(=O)N1` [nitrofurantoin], which “preferred absorption in a limited segment of the human gastrointestinal tract” value is on record?
Answer: The value was “duodenum”.

Question: And the “expected urinary level peaks” value (immediately available dose, conventional dosage forms, human)?
Answer: The value was 2 to 3 h.
